From ChEMBL document CHEMBL5247644, “Design and Synthesis of Sulfonium Derivatives: A Novel Class of α-Glucosidase Inhibitors with Potent In Vivo Antihyperglycemic Activities” (J Med Chem, 2023)
The source made the active and inactive calls. No cut-off for these calls is given here.

Assays:
[1] = biological target: T1, Sucrase-isomaltase, intestinal (Rattus norvegicus, UniProt P23739); assay: Inhibition of sucrase in rat small intestinal brush border membrane vesicles using sucrose as substrate incubated for 30 mins by glucose-oxidase method; type: cell membranes, Small intestine, Membrane vesicle
[2] = Inhibition of maltase in rat small intestinal brush border membrane vesicles using maltose as substrate incubated for 30 mins by glucose-oxidase method; type: cell membranes, Small intestine, Membrane vesicle
[3] = biological target: T1, Sucrase-isomaltase, intestinal; assay: Binding affinity to sucrase in rat small intestinal brush border membrane vesicles assessed as inhibition constant using sucrose as substrate incubated for 30 mins by glucose-oxidase method; type: cell membranes, Small intestine, Membrane vesicle
Rattus norvegicus [4] = assay: Antihyperglycemic activity in fasted rat assessed as decrease in blood glucose level at 1 mg/kg measured after 60 mins by maltose loading test relative to control; type: functional; set-up: scale not given: the % may be the effect or the level left
[5] = biological target: Lysosomal alpha-glucosidase (Rattus norvegicus) (UniProt Q6P7A9); assay: Competitive inhibition of maltase in rat small intestinal brush border membrane vesicles using maltose as substrate incubated for 30 mins by Lineweaver-Burk plot analysis; type: cell membranes; conditions: Small intestine, Membrane vesicle
Mus musculus [6] = assay: Antihyperglycemic activity in overnight fasted ICR mouse assessed as decrease in blood glucose level at 10 mg/kg, IG administered via tube and measured after 15 mins by sucrose loading test relative to control; type: functional; set-up: scale not given: the % may be the effect or the level left; conditions: 0.25 h
Mus musculus [7] = assay: Antihyperglycemic activity in overnight fasted ICR mouse assessed as decrease in blood glucose level at 10 mg/kg, IG administered via tube and measured after 30 mins by sucrose loading test relative to control; type: functional; set-up: scale not given: the % may be the effect or the level left; conditions: 0.5 h
Rattus norvegicus [8] = assay: Antihyperglycemic activity in fasted rat assessed as decrease in blood glucose level at 1 mg/kg measured after 30 mins by maltose loading test relative to control; type: functional; set-up: scale not given: the % may be the effect or the level left; conditions: 0.5 h
[9] = biological target: Lysosomal alpha-glucosidase (Rattus norvegicus) (UniProt Q6P7A9); assay: Potency index, ratio of neoponkoranol IC50 to test compound IC50 for inhibition of maltase in rat small intestinal brush border membrane vesicles using maltose as substrate incubated for 30 mins by glucose-oxidase method; type: cell membranes; conditions: Small intestine, Membrane vesicle
Rattus norvegicus [10] = assay: Antihyperglycemic activity in fasted rat assessed as decrease in AUC of blood glucose level at 1 mg/kg measured for 15 to 60 mins by maltose loading test relative to control; type: functional; set-up: scale not given: the % may be the effect or the level left; conditions: time 15-60 min
Mus musculus [11] = assay: Antihyperglycemic activity in overnight fasted ICR mouse assessed as decrease in AUC of blood glucose level at 1 mg/kg, IG administered via tube and measured after 15 to 60 mins by sucrose loading test relative to control; type: functional; set-up: scale not given: the % may be the effect or the level left; conditions: time 15-60 min
Mus musculus [12] = assay: Antihyperglycemic activity in overnight fasted ICR mouse assessed as decrease in AUC of blood glucose level at 10 mg/kg, IG administered via tube and measured after 15 to 60 mins by sucrose loading test relative to control; type: functional; set-up: scale not given: the % may be the effect or the level left; conditions: time 15-60 min
Rattus norvegicus [13] = assay: Antihyperglycemic activity in fasted rat assessed as decrease in blood glucose level at 1 mg/kg measured after 15 mins by maltose loading test relative to control; type: functional; set-up: scale not given: the % may be the effect or the level left; conditions: 0.25 h
Mus musculus [14] = assay: Antihyperglycemic activity in overnight fasted ICR mouse assessed as decrease in blood glucose level at 10 mg/kg, IG administered via tube and measured after 60 mins by sucrose loading test relative to control; type: functional; set-up: scale not given: the % may be the effect or the level left; conditions: 1 h
Mus musculus [15] = assay: Antihyperglycemic activity in overnight fasted ICR mouse assessed as decrease in blood glucose level at 1 mg/kg, IG administered via tube and measured after 30 mins by sucrose loading test relative to control; type: functional; set-up: scale not given: the % may be the effect or the level left; conditions: 0.5 h
Mus musculus [16] = assay: Antihyperglycemic activity in overnight fasted ICR mouse assessed as decrease in blood glucose level at 1 mg/kg, IG administered via tube and measured after 60 mins by sucrose loading test relative to control; type: functional; set-up: scale not given: the % may be the effect or the level left
Mus musculus [17] = assay: Antihyperglycemic activity in overnight fasted ICR mouse assessed as decrease in blood glucose level at 1 mg/kg, IG administered via tube and measured after 15 mins by sucrose loading test relative to control; type: functional; set-up: scale not given: the % may be the effect or the level left; conditions: 0.25 h
[18] = biological target: Sucrase-isomaltase, intestinal (Rattus norvegicus) (UniProt P23739); assay: Competitive inhibition of sucrase in rat small intestinal brush border membrane vesicles using sucrose as substrate incubated for 30 mins by Lineweaver-Burk plot analysis; type: cell membranes; conditions: Small intestine, Membrane vesicle
[19] = biological target: Sucrase-isomaltase, intestinal (Rattus norvegicus) (UniProt P23739); assay: Potency index, ratio of neoponkoranol IC50 to test compound IC50 for inhibition of sucrase in rat small intestinal brush border membrane vesicles using sucrose as substrate incubated for 30 mins by glucose-oxidase method; type: cell membranes; conditions: Small intestine, Membrane vesicle
Mus musculus [20] = assay: Antihyperglycemic activity in overnight fasted ICR mouse assessed as decrease in AUC of blood glucose level at 20 mg/kg, IG administered via tube and measured after 15 to 60 mins by sucrose loading test relative to control; type: functional; set-up: scale not given: the % may be the effect or the level left; conditions: time 15-60 min
Mus musculus [21] = assay: Antihyperglycemic activity in overnight fasted ICR mouse assessed as decrease in blood glucose level at 20 mg/kg, IG administered via tube and measured after 15 mins by sucrose loading test relative to control; type: functional; set-up: scale not given: the % may be the effect or the level left; conditions: 0.25 h
Mus musculus [22] = assay: Antihyperglycemic activity in overnight fasted ICR mouse assessed as decrease in blood glucose level at 20 mg/kg, IG administered via tube and measured after 30 mins by sucrose loading test relative to control; type: functional; set-up: scale not given: the % may be the effect or the level left; conditions: 0.5 h
Mus musculus [23] = assay: Antihyperglycemic activity in overnight fasted ICR mouse assessed as decrease in blood glucose level at 20 mg/kg, IG administered via tube and measured after 60 mins by sucrose loading test relative to control; type: functional; set-up: scale not given: the % may be the effect or the level left; conditions: 1 h
[24] = biological target: Lysosomal alpha-glucosidase (Rattus norvegicus) (UniProt Q6P7A9); assay: Potency index, ratio of acarbose IC50 to test compound IC50 for inhibition of maltase in rat small intestinal brush border membrane vesicles using maltose as substrate incubated for 30 mins by glucose-oxidase method; type: cell membranes; conditions: Small intestine, Membrane vesicle
[25] = biological target: Lysosomal alpha-glucosidase (Rattus norvegicus) (UniProt Q6P7A9); assay: Potency index, ratio of voglibose IC50 to test compound IC50 for inhibition of maltase in rat small intestinal brush border membrane vesicles using maltose as substrate incubated for 30 mins by glucose-oxidase method; type: cell membranes; conditions: Small intestine, Membrane vesicle

T1 sequence (P23739 1-1013 limits assumed): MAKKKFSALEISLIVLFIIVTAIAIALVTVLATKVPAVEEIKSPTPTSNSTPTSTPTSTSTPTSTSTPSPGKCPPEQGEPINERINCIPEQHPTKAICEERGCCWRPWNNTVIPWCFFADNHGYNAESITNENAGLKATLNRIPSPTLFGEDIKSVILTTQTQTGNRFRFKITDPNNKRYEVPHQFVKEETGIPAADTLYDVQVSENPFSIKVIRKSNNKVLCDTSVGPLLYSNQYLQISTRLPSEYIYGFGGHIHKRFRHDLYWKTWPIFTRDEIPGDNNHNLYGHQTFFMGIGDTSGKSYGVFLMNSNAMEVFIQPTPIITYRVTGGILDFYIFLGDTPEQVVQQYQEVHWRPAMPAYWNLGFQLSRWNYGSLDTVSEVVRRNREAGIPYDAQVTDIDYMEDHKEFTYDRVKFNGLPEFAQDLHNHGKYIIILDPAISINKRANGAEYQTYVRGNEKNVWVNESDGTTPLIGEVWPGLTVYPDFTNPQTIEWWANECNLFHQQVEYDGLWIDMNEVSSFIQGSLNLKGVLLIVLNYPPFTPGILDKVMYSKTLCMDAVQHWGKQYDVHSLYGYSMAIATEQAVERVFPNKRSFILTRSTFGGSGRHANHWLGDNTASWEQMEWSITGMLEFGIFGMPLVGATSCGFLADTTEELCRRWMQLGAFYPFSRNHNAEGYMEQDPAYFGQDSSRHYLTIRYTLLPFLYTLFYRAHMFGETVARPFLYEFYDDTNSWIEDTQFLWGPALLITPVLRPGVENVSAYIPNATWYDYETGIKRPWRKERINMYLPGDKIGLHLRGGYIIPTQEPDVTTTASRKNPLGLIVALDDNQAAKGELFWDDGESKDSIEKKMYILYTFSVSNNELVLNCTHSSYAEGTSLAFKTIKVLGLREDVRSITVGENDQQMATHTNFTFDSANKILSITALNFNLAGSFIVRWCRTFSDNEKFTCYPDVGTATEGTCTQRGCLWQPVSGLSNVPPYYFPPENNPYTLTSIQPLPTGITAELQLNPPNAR
T1 sequence (P23739 1014-1841 limits assumed): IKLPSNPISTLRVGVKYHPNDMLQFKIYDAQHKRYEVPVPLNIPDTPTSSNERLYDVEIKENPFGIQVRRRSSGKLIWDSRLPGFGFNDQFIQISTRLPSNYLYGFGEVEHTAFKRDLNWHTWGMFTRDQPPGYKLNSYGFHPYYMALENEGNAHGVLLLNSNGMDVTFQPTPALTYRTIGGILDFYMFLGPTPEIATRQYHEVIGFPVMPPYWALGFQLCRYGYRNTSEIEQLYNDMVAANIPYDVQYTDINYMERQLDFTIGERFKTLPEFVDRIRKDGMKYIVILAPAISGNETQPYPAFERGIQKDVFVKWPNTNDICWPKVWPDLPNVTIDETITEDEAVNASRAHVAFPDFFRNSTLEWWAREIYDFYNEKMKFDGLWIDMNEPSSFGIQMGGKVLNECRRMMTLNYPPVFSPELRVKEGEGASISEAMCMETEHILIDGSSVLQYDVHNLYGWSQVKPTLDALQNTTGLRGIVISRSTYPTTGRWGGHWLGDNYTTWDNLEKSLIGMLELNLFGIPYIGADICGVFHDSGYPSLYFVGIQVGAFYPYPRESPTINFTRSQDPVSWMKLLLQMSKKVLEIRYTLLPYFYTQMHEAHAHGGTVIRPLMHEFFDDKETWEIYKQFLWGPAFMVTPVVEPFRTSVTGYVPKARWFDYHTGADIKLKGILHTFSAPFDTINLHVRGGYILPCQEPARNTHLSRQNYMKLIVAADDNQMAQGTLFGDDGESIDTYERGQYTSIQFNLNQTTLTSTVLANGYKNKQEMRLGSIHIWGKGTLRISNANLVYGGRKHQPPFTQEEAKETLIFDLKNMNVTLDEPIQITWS
Sequence of Sucrase-isomaltase, intestinal (Rattus norvegicus) (P23739 1-1013 limits assumed): as the sequence (P23739 1-1013 limits assumed) above
Sequence of Sucrase-isomaltase, intestinal (Rattus norvegicus) (P23739 1014-1841 limits assumed): as the sequence (P23739 1014-1841 limits assumed) above
Sequence of Lysosomal alpha-glucosidase (Rattus norvegicus) (Q6P7A9 whole entry): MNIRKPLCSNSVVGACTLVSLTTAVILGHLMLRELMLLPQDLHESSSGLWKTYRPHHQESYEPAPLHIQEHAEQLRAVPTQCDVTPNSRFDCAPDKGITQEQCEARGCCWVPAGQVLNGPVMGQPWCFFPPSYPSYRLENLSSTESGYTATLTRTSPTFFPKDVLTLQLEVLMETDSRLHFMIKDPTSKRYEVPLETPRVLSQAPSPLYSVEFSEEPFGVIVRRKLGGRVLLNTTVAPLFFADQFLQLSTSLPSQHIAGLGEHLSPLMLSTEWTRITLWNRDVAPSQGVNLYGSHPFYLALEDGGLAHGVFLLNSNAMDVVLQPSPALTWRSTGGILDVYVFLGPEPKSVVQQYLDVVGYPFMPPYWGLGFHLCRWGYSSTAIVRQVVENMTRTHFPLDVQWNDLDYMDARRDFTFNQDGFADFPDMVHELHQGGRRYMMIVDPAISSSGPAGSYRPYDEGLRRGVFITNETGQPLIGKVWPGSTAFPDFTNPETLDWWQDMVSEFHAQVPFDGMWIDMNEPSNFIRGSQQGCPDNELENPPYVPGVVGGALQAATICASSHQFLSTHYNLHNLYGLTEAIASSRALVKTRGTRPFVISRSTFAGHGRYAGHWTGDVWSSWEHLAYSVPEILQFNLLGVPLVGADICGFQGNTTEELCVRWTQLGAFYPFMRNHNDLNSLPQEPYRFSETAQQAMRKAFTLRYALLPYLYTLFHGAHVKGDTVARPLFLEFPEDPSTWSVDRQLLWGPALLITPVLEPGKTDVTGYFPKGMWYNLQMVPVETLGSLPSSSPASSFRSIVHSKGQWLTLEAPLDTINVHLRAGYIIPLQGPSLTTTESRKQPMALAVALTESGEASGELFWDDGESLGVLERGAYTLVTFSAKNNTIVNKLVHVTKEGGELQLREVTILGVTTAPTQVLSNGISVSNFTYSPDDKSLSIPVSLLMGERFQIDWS

OC[C@@H]1[C@@H](O)[C@H](O)C[S@@+]1C[C@@H](O)[C@H]1OC(c2cccc(C(F)(F)F)c2)OC[C@H]1O (stereo partly drawn)
IC50 [1]: 300 nM | IC50 [2]: 1500 nM

OC[C@@H]1[C@@H](O)[C@H](O)C[S@@+]1C[C@@H](O)[C@H]1OC(c2ccc(F)cc2)OC[C@H]1O (stereo partly drawn)
IC50 [1]: 2500 nM | IC50 [2]: 3000 nM

OC[C@@H]1[C@@H](O)[C@H](O)C[S@@+]1C[C@@H](O)[C@H]1OC(c2ccccc2Cl)OC[C@H]1O (stereo partly drawn)
Ki [3]: 474 nM | IC50 [1]: 540 nM | IC50 [2]: 410 nM

OC[C@@H]1[C@@H](O)[C@H](O)C[S@@+]1C[C@@H](O)[C@H]1OC(c2cccc(Cl)c2)OC[C@H]1O (stereo partly drawn)
IC50 [1]: 1900 nM | IC50 [2]: 3100 nM

OC[C@@H]1[C@@H](O)[C@H](O)C[S@@+]1C[C@@H](O)[C@H]1OC(c2ccccc2C(F)(F)F)OC[C@H]1O.[Cl-] (stereo partly drawn)
Activity (Rattus norvegicus [4]): 43.2% | inhibition [5]: Active | Activity (Mus musculus [6]): 43.5% | Activity (Mus musculus [7]): 56.6% | Ki [3]: 398 nM | IC50 [1]: 220 nM | Activity (Rattus norvegicus [8]): 48.7% | Ratio IC50 [9]: 40 | Activity (Rattus norvegicus [10]): 39.7% | Activity (Mus musculus [11]): 34% | Activity (Mus musculus [12]): 45.8% | Activity (Rattus norvegicus [13]): 45.7% | Activity (Mus musculus [14]): 51% | IC50 [2]: 230 nM | Activity (Mus musculus [15]): 47.3% | Activity (Mus musculus [16]): 37.8% | Activity (Mus musculus [17]): 35.1% | inhibition [18]: Active

O=[N+]([O-])c1ccc(C2OC[C@@H](O)[C@@H]([C@H](O)C[S@+]3C[C@@H](O)[C@H](O)[C@H]3CO)O2)cc1 (stereo partly drawn)
IC50 [1]: 4700 nM | IC50 [2]: 4500 nM

OC[C@@H]1[C@@H](O)[C@H](O)C[S@@+]1C[C@@H](O)[C@H]1OC(c2ccccc2)OC[C@H]1O (stereo partly drawn)
Ki [3]: 758 nM | IC50 [1]: 420 nM | Ratio IC50 [19]: 5 | Ratio IC50 [9]: 10 | IC50 [2]: 830 nM

OC[C@@H]1[C@@H](O)[C@H](O)C[S@@+]1C[C@@H](O)[C@H]1OC(c2ccccc2F)OC[C@H]1O (stereo partly drawn)
Ki [3]: 562 nM | IC50 [1]: 400 nM | IC50 [2]: 840 nM

O=[N+]([O-])c1cccc(C2OC[C@@H](O)[C@@H]([C@H](O)C[S@+]3C[C@@H](O)[C@H](O)[C@H]3CO)O2)c1 (stereo partly drawn)
IC50 [1]: 3400 nM | IC50 [2]: 6700 nM

OC[C@@H]1[C@@H](O)[C@H](O)C[S@@+]1C[C@@H](O)[C@H]1OC(c2ccc(C(F)(F)F)cc2)OC[C@H]1O (stereo partly drawn)
IC50 [1]: 2300 nM | IC50 [2]: 3500 nM

C[C@H]1O[C@H](O[C@H]2[C@H](O)[C@@H](O)[C@@H](O[C@H]3[C@H](O)[C@@H](O)C(O)O[C@@H]3CO)O[C@@H]2CO)[C@H](O)[C@@H](O)[C@@H]1N[C@H]1C=C(CO)[C@@H](O)[C@H](O)[C@H]1O (stereo partly drawn) [ACARBOSE]
Activity (Mus musculus [20]): 40% | Activity (Mus musculus [21]): 40.2% | Activity (Mus musculus [22]): 50.9% | Activity (Mus musculus [23]): 45.1%

OC[C@@H]1[C@@H](O)[C@H](O)C[S@@+]1C[C@@H](O)[C@H]1OC(c2ccc(Cl)cc2)OC[C@H]1O (stereo partly drawn)
IC50 [1]: 2300 nM | IC50 [2]: 4000 nM

OC[C@@H]1[C@@H](O)[C@H](O)C[S@@+]1C[C@@H](O)[C@@H](O)[C@@H](O)[C@@H](O)CO
Activity (Rattus norvegicus [4]): 19.8% | Activity (Mus musculus [6]): 37.5% | Activity (Mus musculus [7]): 48.3% | IC50 [1]: 1900 nM | Activity (Rattus norvegicus [8]): 34.5% | Activity (Rattus norvegicus [10]): 23% | Activity (Mus musculus [11]): 29.6% | Activity (Mus musculus [12]): 40% | Activity (Rattus norvegicus [13]): 35.3% | Activity (Mus musculus [14]): 45.1% | IC50 [2]: 7800 nM | Activity (Mus musculus [15]): 39.6% | Activity (Mus musculus [16]): 35.3% | Activity (Mus musculus [17]): 27.8%

OC[C@@H]1[C@@H](O)[C@H](O)C[S@@+]1C[C@@H](O)[C@H]1OC(c2cccc(F)c2)OC[C@H]1O (stereo partly drawn)
IC50 [1]: 700 nM | IC50 [2]: 1700 nM

OCC(CO)N[C@H]1C[C@](O)(CO)[C@@H](O)[C@H](O)[C@H]1O [VOGLIBOSE]
Activity (Rattus norvegicus [4]): 43.3% | Activity (Rattus norvegicus [8]): 55.1% | Activity (Rattus norvegicus [10]): 41.1% | Activity (Rattus norvegicus [13]): 50%

Cl.O=[N+]([O-])c1ccccc1C1OC[C@@H](O)[C@@H]([C@H](O)C[S@+]2C[C@@H](O)[C@H](O)[C@H]2CO)O1 (stereo partly drawn)
Activity (Rattus norvegicus [4]): 48.3% | inhibition [5]: Active | Activity (Mus musculus [6]): 49% | Activity (Mus musculus [7]): 60% | Ratio IC50 [24]: 16 | Ki [3]: 352 nM | IC50 [1]: 100 nM | Ratio IC50 [19]: 20 | Activity (Rattus norvegicus [8]): 54.6% | Ratio IC50 [9]: 40 | Activity (Rattus norvegicus [10]): 45.6% | Activity (Mus musculus [11]): 38.1% | Activity (Mus musculus [12]): 50.1% | Activity (Rattus norvegicus [13]): 50% | Activity (Mus musculus [14]): 54.6% | Ratio IC50 [25]: 7.5 | IC50 [2]: 200 nM | Activity (Mus musculus [15]): 48% | Activity (Mus musculus [16]): 43.9% | Activity (Mus musculus [17]): 41.1% | inhibition [18]: Active
